Laboratory results published in ChEMBL document CHEMBL1909046, “DrugMatrix in vitro pharmacology data”.
pIC50: −log10 of the molar value.

Legend:
[1] = molecular target: T1, C-X-C chemokine receptor type 2 (Homo sapiens, UniProt P25025); format: cell membranes, CHO-K1, Membrane; details: cho-k1; note: in other assays of this panel Not Active means under 50% inhibition at 10 µM
T1 sequence (P25025 whole entry): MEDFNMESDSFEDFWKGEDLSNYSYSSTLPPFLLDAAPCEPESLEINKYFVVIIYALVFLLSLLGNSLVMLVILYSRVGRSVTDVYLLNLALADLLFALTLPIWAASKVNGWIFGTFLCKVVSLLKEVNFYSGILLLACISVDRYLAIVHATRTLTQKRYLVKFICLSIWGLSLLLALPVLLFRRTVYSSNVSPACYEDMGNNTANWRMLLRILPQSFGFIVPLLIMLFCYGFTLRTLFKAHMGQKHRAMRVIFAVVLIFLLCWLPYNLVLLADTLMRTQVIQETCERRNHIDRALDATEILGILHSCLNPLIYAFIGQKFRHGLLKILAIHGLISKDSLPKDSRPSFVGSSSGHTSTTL

[2] = molecular target: Platelet-activating factor receptor (Homo sapiens, UniProt P25105); format: tissue-based; note: in other assays of this panel Not Active means under 50% inhibition at 10 µM
Sequence of Platelet-activating factor receptor (P25105 whole entry): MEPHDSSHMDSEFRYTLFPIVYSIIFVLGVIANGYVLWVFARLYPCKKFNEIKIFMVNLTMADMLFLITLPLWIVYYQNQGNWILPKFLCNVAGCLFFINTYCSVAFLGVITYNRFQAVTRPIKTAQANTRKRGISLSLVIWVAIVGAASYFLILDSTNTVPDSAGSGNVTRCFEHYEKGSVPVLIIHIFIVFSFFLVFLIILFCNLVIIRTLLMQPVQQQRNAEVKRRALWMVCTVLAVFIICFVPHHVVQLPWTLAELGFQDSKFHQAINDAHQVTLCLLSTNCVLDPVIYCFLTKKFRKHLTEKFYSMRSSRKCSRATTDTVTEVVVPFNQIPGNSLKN

[3] = molecular target: T2, Alpha-2C adrenergic receptor (Homo sapiens, UniProt P18825); experiment: DRUGMATRIX: Adrenergic Alpha-2C radioligand binding (ligand: [3H] MK-912); format: cell membranes, Sf9, Membrane; details: sf9
T2 sequence (P18825 whole entry): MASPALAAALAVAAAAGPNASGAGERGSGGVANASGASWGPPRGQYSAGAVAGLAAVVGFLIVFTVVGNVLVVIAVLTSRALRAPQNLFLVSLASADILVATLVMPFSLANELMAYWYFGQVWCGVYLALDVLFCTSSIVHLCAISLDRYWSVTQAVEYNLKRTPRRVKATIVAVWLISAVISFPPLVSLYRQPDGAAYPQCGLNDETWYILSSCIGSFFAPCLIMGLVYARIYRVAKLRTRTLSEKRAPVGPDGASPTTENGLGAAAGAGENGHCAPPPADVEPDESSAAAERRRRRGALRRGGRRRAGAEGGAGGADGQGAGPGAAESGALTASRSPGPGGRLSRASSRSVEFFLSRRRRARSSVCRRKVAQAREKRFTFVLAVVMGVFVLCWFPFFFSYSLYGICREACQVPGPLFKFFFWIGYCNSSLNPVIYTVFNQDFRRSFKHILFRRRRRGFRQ

[4] = molecular target: T3, C-C chemokine receptor type 4 (Homo sapiens, UniProt P51679); format: cell membranes, Chem-1, Membrane; details: chem-1; note: in other assays of this panel Not Active means under 50% inhibition at 10 µM
T3 sequence (P51679 whole entry): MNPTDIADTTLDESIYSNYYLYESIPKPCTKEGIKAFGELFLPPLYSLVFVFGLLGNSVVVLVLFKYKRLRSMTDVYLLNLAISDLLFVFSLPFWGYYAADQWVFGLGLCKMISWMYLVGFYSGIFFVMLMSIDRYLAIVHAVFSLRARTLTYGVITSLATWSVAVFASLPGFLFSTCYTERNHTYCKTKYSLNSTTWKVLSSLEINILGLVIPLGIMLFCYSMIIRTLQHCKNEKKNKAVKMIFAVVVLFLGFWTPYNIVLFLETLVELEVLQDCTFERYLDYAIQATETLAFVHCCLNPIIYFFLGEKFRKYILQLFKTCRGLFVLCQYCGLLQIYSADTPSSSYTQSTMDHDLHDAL

[5] = DRUGMATRIX: ATPase, Na+/K+ enzyme inhibition (substrate: ATP); format: tissue-based, Sus scrofa, Heart; details: Not Active = under 50% inhibition at 10 µM
[6] = molecular target: T4, D(4) dopamine receptor (Homo sapiens, UniProt P21917); experiment: DRUGMATRIX: Dopamine D4.2 radioligand binding (ligand: [3H] Spiperone); format: cell membranes, CHO-K1, Membrane; details: cho-k1; Not Active = under 50% inhibition at 10 µM
T4 sequence (P21917 whole entry): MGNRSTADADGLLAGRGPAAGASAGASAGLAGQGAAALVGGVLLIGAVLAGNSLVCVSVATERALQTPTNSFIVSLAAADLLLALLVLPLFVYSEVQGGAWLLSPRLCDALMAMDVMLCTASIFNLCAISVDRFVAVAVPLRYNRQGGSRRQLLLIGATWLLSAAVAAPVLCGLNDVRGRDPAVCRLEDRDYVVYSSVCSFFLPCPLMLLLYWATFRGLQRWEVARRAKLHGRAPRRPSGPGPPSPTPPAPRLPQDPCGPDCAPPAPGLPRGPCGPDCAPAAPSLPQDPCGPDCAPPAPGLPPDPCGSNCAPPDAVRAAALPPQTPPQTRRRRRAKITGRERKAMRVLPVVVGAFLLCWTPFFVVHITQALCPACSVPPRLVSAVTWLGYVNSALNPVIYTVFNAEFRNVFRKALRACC

[7] = molecular target: Vascular endothelial growth factor receptor 1 (Homo sapiens, UniProt P17948); format: cell-based; details: huvec; note: in other assays of this panel Not Active means under 50% inhibition at 10 µM
Sequence of Vascular endothelial growth factor receptor 1 (P17948 whole entry): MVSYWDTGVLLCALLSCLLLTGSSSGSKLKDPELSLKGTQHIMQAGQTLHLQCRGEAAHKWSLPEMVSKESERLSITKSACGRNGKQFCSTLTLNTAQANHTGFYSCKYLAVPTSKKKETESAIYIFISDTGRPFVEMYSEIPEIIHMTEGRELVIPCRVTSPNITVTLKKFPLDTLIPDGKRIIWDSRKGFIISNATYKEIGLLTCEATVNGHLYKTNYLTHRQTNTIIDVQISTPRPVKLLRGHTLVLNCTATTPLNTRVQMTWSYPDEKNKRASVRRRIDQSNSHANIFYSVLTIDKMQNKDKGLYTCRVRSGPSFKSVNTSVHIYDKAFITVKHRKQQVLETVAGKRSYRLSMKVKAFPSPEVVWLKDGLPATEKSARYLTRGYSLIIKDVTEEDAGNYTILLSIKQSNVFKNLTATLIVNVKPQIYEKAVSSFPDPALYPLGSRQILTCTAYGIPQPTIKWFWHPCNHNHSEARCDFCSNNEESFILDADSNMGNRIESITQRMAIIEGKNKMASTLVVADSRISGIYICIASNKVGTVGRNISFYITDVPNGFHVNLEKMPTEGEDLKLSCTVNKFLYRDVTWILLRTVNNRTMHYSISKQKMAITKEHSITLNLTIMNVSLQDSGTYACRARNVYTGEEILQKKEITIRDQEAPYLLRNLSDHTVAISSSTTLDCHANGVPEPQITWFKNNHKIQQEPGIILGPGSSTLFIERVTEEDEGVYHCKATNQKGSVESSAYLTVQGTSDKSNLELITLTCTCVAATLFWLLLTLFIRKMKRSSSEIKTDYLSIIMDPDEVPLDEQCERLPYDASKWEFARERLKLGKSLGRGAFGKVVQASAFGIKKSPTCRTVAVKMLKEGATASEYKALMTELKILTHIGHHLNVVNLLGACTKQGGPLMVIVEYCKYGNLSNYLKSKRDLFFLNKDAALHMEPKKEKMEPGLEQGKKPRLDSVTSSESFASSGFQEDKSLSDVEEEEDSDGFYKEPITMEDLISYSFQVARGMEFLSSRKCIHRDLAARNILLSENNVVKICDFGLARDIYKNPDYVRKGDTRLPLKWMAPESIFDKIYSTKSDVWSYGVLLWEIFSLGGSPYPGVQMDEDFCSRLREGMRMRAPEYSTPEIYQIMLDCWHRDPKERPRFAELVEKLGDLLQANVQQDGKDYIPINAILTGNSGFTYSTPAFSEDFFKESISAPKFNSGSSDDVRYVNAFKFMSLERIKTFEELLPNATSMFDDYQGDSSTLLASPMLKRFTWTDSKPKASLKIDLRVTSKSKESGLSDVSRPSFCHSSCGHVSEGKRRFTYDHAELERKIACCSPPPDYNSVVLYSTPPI

[8] = molecular target: Aldo-keto reductase family 1 member B1 (Rattus norvegicus, UniProt P07943); experiment: biochemical; format: tissue-based, Lens of camera-type eye

SMILES	IC50 [1]	IC50 [2]	IC50 [3]	IC50 [4]	IC50 [5]	Ki [5]	IC50 [6]	IC50 [7]	IC50 [8]	pIC50 ([8]; read-out: IC50)
OC[C@H]1OC2C3[C@@H](CO)OC(O[C@H]4[C@H](O)[C@@H](O)[C@@H](O[C@H]5[C@H](O)[C@@H](O)[C@@H](O[C@H]6[C@H](O)[C@@H](O)[C@@H](O[C@H]7[C@H](O)[C@@H](O)[C@@H](O[C@H]8[C@H](O)[C@@H](O)[C@@H](O[C@H]9[C@H](O)[C@@H](O)C(OC1[C@H](O)[C@H]2O)O[C@@H]9CO)O[C@@H]8CO)O[C@@H]7CO)O[C@@H]6CO)O[C@@H]5CO)O[C@@H]4CO)[C@H](O)[C@H]3O	Not Active	Not Active	Not Active	Not Active	Not Active	Not Active	Not Active	Not Active	Not Active	–
CO[C@H]1O[C@@H]2O[C@@]3(C)CC[C@H]4[C@H](C)CC[C@@H]([C@H]1C)[C@@]24OO3	Not Active	Not Active	Not Active	Not Active	Not Active	Not Active	Not Active	Not Active	Not Active	–
CC(C)Cn1cnc2c(N)nc3ccccc3c21 [IMIQUIMOD]	Not Active	Not Active	Not Active	Not Active	Not Active	Not Active	Not Active	Not Active	Not Active	–
COc1cc(NC(C)CCCN)c2ncccc2c1 (stereo not given) [PRIMAQUINE]	Not Active	Not Active	Not Active	Not Active	Not Active	Not Active	Not Active	Not Active	Not Active	–
O=C(O)COC(=O)Cc1ccccc1Nc1c(Cl)cccc1Cl [ACECLOFENAC]	Not Active	Not Active	Not Active	Not Active	Not Active	Not Active	Not Active	Not Active	–	5.89
C#C[C@]1(O)CC[C@H]2[C@@H]3CCC4=CC(=O)CC[C@@H]4[C@H]3CC[C@@]21C [NORETHINDRONE]	Not Active	Not Active	Not Active	Not Active	Not Active	Not Active	Not Active	Not Active	Not Active	–
CC(C)(C#N)c1cc(Cn2cncn2)cc(C(C)(C)C#N)c1 [ANASTROZOLE]	Not Active	Not Active	Not Active	Not Active	Not Active	Not Active	Not Active	Not Active	Not Active	–
O=C(Nc1ccc(Cl)c(Cl)c1)c1cc(Cl)cc(Cl)c1O [3,3',4',5-TETRACHLOROSALICYLANILIDE]	Not Active	Not Active	Not Active	Not Active	Not Active	Not Active	Not Active	Not Active	Not Active	–
O=C(O)CO [GLYCOLIC ACID]	Not Active	Not Active	Not Active	Not Active	Not Active	Not Active	Not Active	Not Active	Not Active	–
COC(=O)C[C@](O)(CCC(C)(C)O)C(=O)O[C@@H]1C(OC)=C[C@]23CCCN2CCc2cc4c(cc2[C@H]13)OCO4 [HARRINGTONINE]	Not Active	Not Active	Not Active	Not Active	Not Active	Not Active	Not Active	Not Active	Not Active	–
